The source of these data is publication PMC10447267, “Assessment of the potential of the MET inhibitor tepotinib to affect the pharmacokinetics of CYP3A4 and P-gp substrates” (Investigational New Drugs, 2023).

Where only a bound is given, the exact number is not on record here.

For data set [1], the target named is CYP3A4 (Homo sapiens, UniProt P08684). Kind of data set: Study 1 (NCT03628339): effect of tepotinib on midazolam pharmacokinetics in healthy participants. Here is the method:
(§1) Study 1 (NCT03628339) and Study 2 (NCT03492437) were both Phase 1, open-label, single sequence, 2-period studies in 12 and 20 healthy participants, respectively (Fig. 1).
In Period 2 (Days 3 to 15), participants received 500 mg tepotinib, QD 30 min after starting a continental breakfast on Days 3 to 12. On Day 13, participants received the final dose of 500 mg tepotinib 30 min after starting a standardized breakfast identical to the one on Day 1. […] Blood samples for trough concentrations of tepotinib were collected on Days 11, 12 and 13.
(§2) Parameters included maximum plasma concentration (Cmax) and time to reach Cmax (Tmax) taken directly from the observed data. Area under the plasma concentration–time curve (AUC) from time 0 to the last measured concentration (AUC0-t), AUC over the dose interval (AUCtau) and AUC extrapolated to infinity (AUC0-∞) were calculated using the mixed log/linear trapezoidal rule. Terminal elimination half-life (t1/2) was calculated as ln(2)/λz where λz is the terminal rate constant. The primary pharmacokinetic parameters in both studies were Cmax, AUC0-t and AUC0-∞.
(§3) A similar statistical approach was taken for both studies. […] Point estimates and CIs were back-transformed to the original scale.

The target in data set [2] is P-gp (Homo sapiens, UniProt P08183). Kind of data set: Study 2 (NCT03492437): effect of tepotinib on dabigatran pharmacokinetics in healthy participants. It counts as in vivo. The procedure:
as §1
In Period 2 (Days 4 to 14), participants received 500 mg tepotinib QD on Days 4 to 11. […] Blood samples for trough concentrations of tepotinib were collected on Days 9 and 10. Further blood samples for tepotinib and its metabolites were also collected up to 24 h postdose on Day 10.
as §2, §3

Where [3] appears, read: midazolam 7.5 mg single oral dose alone, N = 12, geometric mean (geometric CV%).
The mark [4] stands for this setting: midazolam 7.5 mg with tepotinib 500 mg once daily, N = 12, geometric mean (geometric CV%).
Setting [5] is: tepotinib + dabigatran versus dabigatran alone.

Sequence of P-gp (P08183 whole entry): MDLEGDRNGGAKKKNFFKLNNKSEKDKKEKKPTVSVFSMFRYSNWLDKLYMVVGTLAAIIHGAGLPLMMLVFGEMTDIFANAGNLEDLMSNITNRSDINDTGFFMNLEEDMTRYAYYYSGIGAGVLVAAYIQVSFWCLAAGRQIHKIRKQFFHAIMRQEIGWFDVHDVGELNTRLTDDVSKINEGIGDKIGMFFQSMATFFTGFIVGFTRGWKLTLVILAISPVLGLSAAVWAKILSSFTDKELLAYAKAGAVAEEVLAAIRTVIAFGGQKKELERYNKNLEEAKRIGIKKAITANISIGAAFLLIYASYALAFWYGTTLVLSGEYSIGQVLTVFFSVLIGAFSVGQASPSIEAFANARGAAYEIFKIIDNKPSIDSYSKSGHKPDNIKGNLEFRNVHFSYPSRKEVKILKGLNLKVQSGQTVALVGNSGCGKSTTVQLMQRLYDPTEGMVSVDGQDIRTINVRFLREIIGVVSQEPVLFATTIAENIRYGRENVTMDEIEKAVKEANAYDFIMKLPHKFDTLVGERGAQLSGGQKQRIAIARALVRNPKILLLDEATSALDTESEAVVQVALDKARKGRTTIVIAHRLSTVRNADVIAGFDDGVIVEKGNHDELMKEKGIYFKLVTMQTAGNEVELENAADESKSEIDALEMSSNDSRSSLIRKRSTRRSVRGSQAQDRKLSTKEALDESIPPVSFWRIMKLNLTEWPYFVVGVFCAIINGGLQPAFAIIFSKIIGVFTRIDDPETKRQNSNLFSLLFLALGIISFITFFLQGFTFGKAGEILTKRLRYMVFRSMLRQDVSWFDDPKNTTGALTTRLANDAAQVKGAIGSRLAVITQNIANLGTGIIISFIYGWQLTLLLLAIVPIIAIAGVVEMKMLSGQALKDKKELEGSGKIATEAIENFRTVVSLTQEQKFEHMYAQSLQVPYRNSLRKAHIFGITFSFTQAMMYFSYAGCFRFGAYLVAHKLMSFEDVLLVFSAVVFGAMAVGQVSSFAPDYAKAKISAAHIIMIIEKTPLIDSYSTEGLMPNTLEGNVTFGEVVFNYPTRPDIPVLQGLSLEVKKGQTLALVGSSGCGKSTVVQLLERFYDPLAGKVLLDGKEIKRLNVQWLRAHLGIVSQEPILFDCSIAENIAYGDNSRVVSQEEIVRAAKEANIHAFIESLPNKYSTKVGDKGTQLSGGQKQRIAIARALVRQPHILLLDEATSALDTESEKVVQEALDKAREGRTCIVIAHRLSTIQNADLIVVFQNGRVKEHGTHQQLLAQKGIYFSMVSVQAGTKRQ
Sequence of CYP3A4 (P08684 whole entry): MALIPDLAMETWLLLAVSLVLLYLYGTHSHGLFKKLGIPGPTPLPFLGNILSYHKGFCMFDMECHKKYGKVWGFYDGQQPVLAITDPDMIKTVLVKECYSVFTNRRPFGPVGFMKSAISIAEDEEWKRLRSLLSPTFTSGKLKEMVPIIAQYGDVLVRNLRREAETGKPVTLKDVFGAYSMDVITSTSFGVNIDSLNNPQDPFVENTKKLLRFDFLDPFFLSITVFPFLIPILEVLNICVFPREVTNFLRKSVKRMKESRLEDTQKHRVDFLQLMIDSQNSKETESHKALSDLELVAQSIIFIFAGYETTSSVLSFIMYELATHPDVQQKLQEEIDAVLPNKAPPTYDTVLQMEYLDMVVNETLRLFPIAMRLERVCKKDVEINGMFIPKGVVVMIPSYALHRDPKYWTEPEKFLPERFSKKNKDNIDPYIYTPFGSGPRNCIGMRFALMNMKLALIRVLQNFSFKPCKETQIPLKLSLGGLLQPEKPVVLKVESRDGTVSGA

As for `OCc1ncc2n1-c1ccc(Cl)cc1C(c1ccccc1F)=NC2` [1-hydroxymidazolam], in data set [1] (setting [3]), the AUC0-t is 30,589 (24) h*pg/mL, the “AUC0-∞” value is recorded as 31,269 (23) h*pg/mL, the Cmax is 14,909 (60) pg/mL and the t1/2 is reported as 6.34 (30) h. Further, the Tmax in data set [1] (midazolam 7.5 mg single oral dose alone, N = 12, median (min, max)) is given as 0.500 (0.500, 2.00) h. Moreover, in data set [1] (setting [4]), the AUC0-t is 32,627 (25) h*pg/mL, the “AUC0-∞” value is reported as 33,372 (24) h*pg/mL, the Cmax is given as 15,852 (35) pg/mL and the t1/2 was 6.90 (27) h. The Tmax in data set [1] (midazolam 7.5 mg with tepotinib 500 mg once daily, N = 12, median (min, max)) was 0.508 (0.483, 2.00) h. In data set [1] (midazolam alone, geometric mean (geometric CV%)), the “MR_AUC (metabolic ratio of 1-hydroxymidazolam AUC0-∞ and midazolam AUC0-∞)” value is reported as 0.286 (37) ratio. Also, the “MR_AUC (metabolic ratio of 1-hydroxymidazolam AUC0-∞ and midazolam AUC0-∞)” value in data set [1] (midazolam with tepotinib 500 mg once daily, geometric mean (geometric CV%)) is reported as 0.302 (34) ratio.
Turning to `[H]/N=C(/N)c1ccc(NCc2nc3cc(C(=O)N(CCC(=O)O)c4ccccn4)ccc3n2C)cc1` [dabigatran], the half-life (as a rule, how long it takes for the measured level to halve) in data set [2] (human, plasma, oral, read-out: Terminal half-life (converted)) is around 8 h. Further, the “Exposure increase to dabigatran with tepotinib” value in data set [2] (tepotinib 500 mg QD orally) is given as below 2 fold. Moreover, the “Increase of dabigatran area under the curve extrapolated to infinity by tepotinib” value in data set [2] (tepotinib 500 mg once daily) was 51%. Moreover, the “Increase of dabigatran AUC by coadministration with tepotinib” value in data set [2] (tepotinib 500 mg once daily, compared to administration alone) is around 50%. In data set [2] (setting [5]), the “Ratio of Geometric LS Mean (90% CI), AUC0-t” value is 151.38 (127.35, 179.93) % and the “Ratio of Geometric LS Mean (90% CI), AUC0-∞” value is recorded as 144.70 (122.89, 170.39) %.
Take `Cc1ncc2n1-c1ccc(Cl)cc1C(c1ccccc1F)=NC2` [midazolam]: in data set [1] (human, plasma, oral), the Tmax was determined as 0.508 h and the half-life was around 5 h. Besides, in data set [1] (human, plasma, po, 7.5 mg), the AUC0-t amounted to 108 ng·h/mL, the AUC(0-inf) was 109 ng·h/mL, the Cmax amounted to 49.2 ng/mL and the Tmax is 0.5 h. Also, the t1/2 in data set [1] (setting [4]) was 4.81 (41) h. Besides, in data set [1] (tepotinib 500 mg QD orally), the “Change in exposure to midazolam with tepotinib (in words)” value was “no change in exposure”.
